{"source": "the SangsterLogP compilation", "data": [{"test": "not given", "values": [{"smiles": "Clc1ccc(C(c2ccccc2Cl)C(Cl)Cl)cc1", "note": "(centres undefined)", "logP": 5.34}, {"smiles": "CCCCN(CC)C(=O)SCCC", "logP": 3.27}, {"smiles": "CCCSC(=O)N(CCC)CCC", "logP": 3.19}, {"smiles": "Clc1ccc(C(c2ccccc2Cl)C(Cl)(Cl)Cl)cc1", "note": "(centres undefined)", "logP": 5.53}, {"smiles": "CCSC(=O)N(CC(C)C)CC(C)C", "logP": 3.45}, {"smiles": "CCc1cccc(CC)c1N(COC)C(=O)CCl", "logP": 2.95}, {"smiles": "CCCN(CCC)C(=O)SCC", "logP": 2.77}, {"smiles": "CCOP(=S)(OCC)SCSC(C)(C)C", "logP": 3.98}, {"smiles": "CCSC(=O)N1CCCCCC1", "logP": 2.49}, {"smiles": "CCOP(=S)(OCC)Oc1ccc2c(C)c(Cl)c(=O)oc2c1", "logP": 4.01}, {"smiles": "ClC(Cl)=C(c1ccc(Cl)cc1)c1ccccc1Cl", "logP": 5.45}, {"smiles": "CCSC(=O)N(CC)C1CCCCC1", "logP": 3.25}, {"smiles": "COP(=O)(OC)O/C(=C\\Cl)c1cc(Cl)c(Cl)cc1Cl", "logP": 3.87}]}, {"test": "method code RP-HPLC, from DOI: 10.1016/s0045-6535(96)00355-4", "values": [{"smiles": "CCNc1nc(NC(C)C)nc(OC)n1", "logP": 2.29}, {"smiles": "CCC(CC)Nc1c([N+](=O)[O-])cc(C)c(C)c1[N+](=O)[O-]", "logP": 4.78}, {"smiles": "CCNc1nc(NC(C)(C)C)nc(OC)n1", "logP": 2.95}, {"smiles": "OC(c1ccc(Cl)cc1)(c1ccc(Cl)cc1)C(Cl)(Cl)Cl", "logP": 4.93}, {"smiles": "CCNc1nc(N)nc(Cl)n1", "logP": 1.07}, {"smiles": "CC(C)N(C(=O)CCl)c1ccccc1", "logP": 2.36}]}]}
